Experimental data reported in ChEMBL document CHEMBL1131205, “Rational design and synthesis of novel, potent bis-phenylamidine carboxylate factor Xa inhibitors” (J Med Chem, 1998).

Experiments:
Coagulation factor X = Coagulation factor X (Homo sapiens, UniProt P00742); assay: In vitro inhibition of Coagulation factor X
Prothrombin = Prothrombin (Homo sapiens, UniProt P00734); assay: In vitro inhibition of thrombin
Serine protease 1 = Serine protease 1 (Homo sapiens, UniProt P07477); assay: In vitro inhibition of trypsin
Serine protease 1, sequence (P07477 whole entry): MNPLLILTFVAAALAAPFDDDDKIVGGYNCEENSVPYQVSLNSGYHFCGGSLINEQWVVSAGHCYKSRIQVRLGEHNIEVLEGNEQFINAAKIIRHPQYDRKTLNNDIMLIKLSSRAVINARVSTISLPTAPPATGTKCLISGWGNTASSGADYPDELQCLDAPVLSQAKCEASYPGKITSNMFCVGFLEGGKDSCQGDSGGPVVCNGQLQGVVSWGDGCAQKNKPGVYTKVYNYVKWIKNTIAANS

Coagulation factor X, sequence (P00742 41-179 limits assumed): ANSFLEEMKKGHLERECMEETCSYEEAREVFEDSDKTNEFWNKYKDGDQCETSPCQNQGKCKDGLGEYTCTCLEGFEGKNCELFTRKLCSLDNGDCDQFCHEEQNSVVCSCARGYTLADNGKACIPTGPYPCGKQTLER
Coagulation factor X, sequence (P00742 235-488 limits assumed): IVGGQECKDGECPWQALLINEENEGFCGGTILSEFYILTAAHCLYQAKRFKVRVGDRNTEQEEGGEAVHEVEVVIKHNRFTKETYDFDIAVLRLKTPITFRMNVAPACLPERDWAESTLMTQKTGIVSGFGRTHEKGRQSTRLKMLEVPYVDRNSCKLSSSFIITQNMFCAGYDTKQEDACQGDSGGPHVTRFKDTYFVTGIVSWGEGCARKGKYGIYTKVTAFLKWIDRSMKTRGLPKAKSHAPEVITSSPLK

## COC(=O)CC(CCc1ccc(N=C(N)N)cc1)c1cccc(C(=N)N)c1 (centres undefined)
Coagulation factor X
  Ki: 9 nM
Prothrombin
  Ki: 3100 nM
Serine protease 1
  Ki: 96 nM

## N=C(N)c1ccc(CCC(=O)c2cccc(C(=N)N)c2)cc1
Coagulation factor X
  Ki: 5100 nM
Prothrombin
  Ki: 4400 nM

## COC(=O)CC(CCc1ccc(C(N)=O)cc1)c1cccc(C(=N)N)c1 (centres undefined)
Coagulation factor X
  Ki: 550 nM
Prothrombin
  Ki: 6500 nM
Serine protease 1
  Ki: 870 nM

## CONC(=O)CC(CCc1ccc(C(=N)N)cc1)c1cccc(C(=N)N)c1 (centres undefined)
Coagulation factor X
  Ki: 2400 nM
Prothrombin
  Ki: 19600 nM

## CCOC(=O)CC(CCc1ccc(C(=N)N)cc1)c1ccccc1 (centres undefined)
Coagulation factor X
  Ki: > 30000 nM
Prothrombin
  Ki: 6200 nM

## COC(=O)CC(CCc1ccc(N)cc1)c1cccc(C(=N)N)c1 (centres undefined)
Coagulation factor X
  Ki: 5000 nM
Prothrombin
  Ki: 7700 nM
Serine protease 1
  Ki: 1200 nM

## COC(=O)CC(CCc1ccc(NS(=O)(=O)c2ccccc2)cc1)c1cccc(C(=N)N)c1 (centres undefined)
Coagulation factor X
  Ki: 1100 nM
Prothrombin
  Ki: 1750 nM
Serine protease 1
  Ki: 610 nM

## COC(=O)CC(CCc1ccc(C(=O)OC)cc1)c1cccc(C(=N)N)c1 (centres undefined)
Coagulation factor X
  Ki: 2800 nM
Prothrombin
  Ki: 3600 nM
Serine protease 1
  Ki: 330 nM

## CC(C)OC(=O)CC(CCc1ccc(C(=N)N)cc1)c1cccc(C(=N)N)c1 (centres undefined)
Coagulation factor X
  Ki: 192 nM
Prothrombin
  Ki: 1540 nM
Serine protease 1
  Ki: 140 nM

## N=C(N)c1ccc(CCC(CC(=O)N2CCCC2)c2cccc(C(=N)N)c2)cc1 (centres undefined)
Coagulation factor X
  Ki: 1150 nM
Prothrombin
  Ki: 2800 nM
Serine protease 1
  Ki: 440 nM

## CCOC(=O)CC(CCc1cccc(C(=N)N)c1)c1ccc(C(=N)N)cc1 (centres undefined)
Coagulation factor X
  Ki: 1640 nM
Prothrombin
  Ki: 3430 nM

## CCOC(=O)CC(CCc1ccccc1)c1cccc(C(=N)N)c1 (centres undefined)
Coagulation factor X
  Ki: 2900 nM
Prothrombin
  Ki: > 2100 nM

## CNC(=O)CC(CCc1ccc(C(=N)N)cc1)c1cccc(C(=N)N)c1 (centres undefined)
Coagulation factor X
  Ki: 940 nM
Prothrombin
  Ki: 8000 nM
Serine protease 1
  Ki: 820 nM

## COC(=O)CC(CCc1ccc(NS(C)(=O)=O)cc1)c1cccc(C(=N)N)c1 (centres undefined)
Coagulation factor X
  Ki: 654 nM
Prothrombin
  Ki: 3100 nM
Serine protease 1
  Ki: 110 nM

## COC(=O)CC(CCc1cccc(C(=N)N)c1)c1cccc(C(=N)N)c1 (centres undefined)
Coagulation factor X
  Ki: 2800 nM
Prothrombin
  Ki: 8500 nM

## COC(=O)CC(CCCCc1ccc(N=C(N)N)cc1)c1cccc(C(=N)N)c1 (centres undefined)
Coagulation factor X
  Ki: 57 nM
Prothrombin
  Ki: 3300 nM
Serine protease 1
  Ki: 760 nM

## N=C(N)c1ccc(CCC(CC(=O)O)c2cccc(C(=N)N)c2)cc1 (centres undefined)
Prothrombin
  Ki: > 4200 nM
Serine protease 1
  Ki: > 1200 nM

## CCOC(=O)CC(CCc1ccc(C(=N)N)cc1)c1cccc(C(=N)N)c1 (centres undefined)
Coagulation factor X
  Ki: 42 nM
Prothrombin
  Ki: 1100 nM
Serine protease 1
  Ki: 110 nM

## COC(=O)CNC(=O)CC(CCc1ccc(C(=N)N)cc1)c1cccc(C(=N)N)c1 (centres undefined)
Coagulation factor X
  Ki: 2400 nM
Prothrombin
  Ki: 12600 nM

## CCOC(=O)CC(CCc1ccc(C(=N)N)cc1)c1ccc(C(=N)N)cc1 (centres undefined)
Coagulation factor X
  Ki: 22900 nM
Prothrombin
  Ki: 1200 nM

## COC(=O)CC(CCc1ccc(C(=N)N)cc1)c1cccc(C(=N)N)c1 (centres undefined)
Coagulation factor X
  Ki: 34 nM
Prothrombin
  Ki: 1200 nM
Serine protease 1
  Ki: 99 nM
